{
  "source": "patent US20240216514A1",
  "about": "“NOVEL ANTITUMOR COMPOUNDS AND RELATED METHODS OF MANUFACTURE AND USE” (KLOTHO THERAPEUTICS, INC., priority 2021, published 2024)",
  "key": {"HepG2-PM4": {"system": "HepG2-PM4", "assay": "Tumor cell growth inhibition, CellTiter-Glo viability, HepG2-PM4", "type": "cell-based", "conditions": "HepG2-PM4, Liver; 72 hours", "experimental": "(§1) To support the potential of compounds of the invention as antitumor agents, their ability to inhibit tumor cell growth across a range of cancer types was evaluated, compared to cisplatin (See FIGS. 3A-3C and FIGS. 4A-4C). Cancer cells were seeded at optimized density on 384-well plates in appropriate media for 24 hours in triplicate for each test article. Titrated compounds or cisplatin were added to cultures for 72 hours with 3-fold dilutions totaling 9 concentrations starting from 30 uM for compounds or 50 uM for cisplatin (see FIGS. 3A-3C). Cell viability was then determined by CellTiter-Glo® Luminescent Cell Viability Assay from Promega, Madison Wisconsin. A dose response curve (see FIGS. 4A-4C) was fitted from luminance activity and the IC50 for each test article was calculated using a four-parameter variable slope in GraphPad Prism version 8.0.0 for Windows, GraphPad Software, San Diego, California USA, www.graphpad.com. Conjugates were more cytotoxic to cancer cells compared to cisplatin alone, some were particularly noteworthy in colon cancer (HCT-15), prostate cancer (PC-3), and breast cancer (MCF-7) cells compared to cisplatin (see, also, Table 1, below)."}, "MCF-7": {"system": "MCF-7", "assay": "Tumor cell growth inhibition, CellTiter-Glo viability, MCF-7", "type": "cell-based", "conditions": "MCF-7, Breast; 72 hours", "experimental": "as §1"}, "H929": {"system": "H929", "assay": "Tumor cell growth inhibition, CellTiter-Glo viability, H929", "type": "cell-based", "conditions": "H929, Bone Marrow; 72 hours", "experimental": "as §1"}, "Huh-7": {"system": "Huh-7", "assay": "Tumor cell growth inhibition, CellTiter-Glo viability, Huh-7", "type": "cell-based", "conditions": "Huh-7, Liver; 72 hours", "experimental": "as §1"}, "Hela": {"system": "Hela", "assay": "Tumor cell growth inhibition, CellTiter-Glo viability, Hela", "type": "cell-based", "conditions": "Cervical, 72 hours", "experimental": "as §1"}, "LNCap": {"system": "LNCap", "assay": "Tumor cell growth inhibition, CellTiter-Glo viability, LNCap", "type": "cell-based", "conditions": "Prostate, 72 hours", "experimental": "as §1"}, "HCT-15": {"system": "HCT-15", "assay": "Tumor cell growth inhibition, CellTiter-Glo viability, HCT-15", "type": "cell-based", "conditions": "HCT-15, Colon; 72 hours", "experimental": "as §1"}, "PC-3": {"system": "PC-3", "assay": "Tumor cell growth inhibition, CellTiter-Glo viability, PC-3", "type": "cell-based", "conditions": "PC-3, Prostate; 72 hours", "experimental": "as §1"}, "MDA-MB-231": {"system": "MDA-MB-231", "assay": "Tumor cell growth inhibition, CellTiter-Glo viability, MDA-MB-231", "type": "cell-based", "conditions": "MDA-MB-231, Breast; 72 hours", "experimental": "as §1"}, "[1]": {"system": "nephrotoxin-induced and ischemia/reperfusion-induced kidney injury", "conditions": "rodents; cited from earlier work"}, "[2]": {"assay": "Chemoprotection against cisplatin-induced myelotoxicity", "conditions": "preliminary results", "text": "Accordingly, by combining PTBA or its analogs with cisplatin through chemical conjugation, not only will the conjugate drug have the potential to act as a synergistic anti-cancer drug combination in its own right, but PTBA and its analogs will also provide for chemoprotection against nephrotoxicity during cancer therapy. […] By reducing adverse side effects, this chemoprotective characteristic of PTBA and its analogs, co-administered as a chemical conjugate with cisplatin, has the potential to increase drug tolerability, to permit uninterrupted treatment schedules, and to eliminate the need to reduce drug doses."}, "HDAC8": {"target": "HDAC8 (Homo sapiens, UniProt Q9BY41)", "sequence (Q9BY41 whole entry)": "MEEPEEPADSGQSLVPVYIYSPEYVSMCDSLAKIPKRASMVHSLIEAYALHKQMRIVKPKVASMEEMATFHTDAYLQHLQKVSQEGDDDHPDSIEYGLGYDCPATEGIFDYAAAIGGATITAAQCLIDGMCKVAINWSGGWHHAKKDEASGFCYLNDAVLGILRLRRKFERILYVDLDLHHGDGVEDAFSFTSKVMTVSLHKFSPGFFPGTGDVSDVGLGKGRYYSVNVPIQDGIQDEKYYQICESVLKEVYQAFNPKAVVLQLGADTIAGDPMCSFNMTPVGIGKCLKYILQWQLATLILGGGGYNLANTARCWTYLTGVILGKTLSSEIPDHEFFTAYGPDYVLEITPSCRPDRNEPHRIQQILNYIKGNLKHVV", "conditions": "cited from earlier work"}},
  "data": [
    {"compound": "N.N.[Cl][Pt][Cl]", "note": "[Cisplatin, cisdiamminedichloroplatinum [II]]", "values": [
      {"measurement": "IC50", "setting": "HepG2-PM4", "value": 14, "unit": "µM"},
      {"measurement": "IC50", "setting": "MCF-7", "value": 2.25, "unit": "µM"},
      {"measurement": "IC50", "setting": "H929", "value": 2.35, "unit": "µM"},
      {"measurement": "IC50", "setting": "Huh-7", "value": 6.47, "unit": "µM"},
      {"measurement": "IC50", "setting": "Hela", "value": 12.3, "unit": "µM"},
      {"measurement": "IC50", "setting": "LNCap", "value": 10.9, "unit": "µM"},
      {"measurement": "IC50", "setting": "HCT-15", "value": 24.3, "unit": "µM"},
      {"measurement": "IC50", "setting": "PC-3", "value": 22, "unit": "µM"},
      {"measurement": "IC50", "setting": "MDA-MB-231", "value": 2.85, "unit": "µM"}
    ]},
    {"compound": "O=C(O)CCCSc1ccccc1", "note": "[PTBA, 4-(phenylthio)butanoic acid]", "values": [
      {"measurement": "Recovery of kidney function after AKI", "setting": "[1]", "value": "significantly accelerate recovery of kidney function"},
      {"measurement": "Chemoprotective effect against cisplatin-induced myelotoxicity", "setting": "[2]", "value": "chemoprotective effect"}
    ]},
    {"compound": "Trichostatin A", "values": [
      {"measurement": "Concentration that completely inhibits HDAC8 activity", "setting": "HDAC8", "value": 5, "unit": "µM"}
    ]},
    {"compound": "O=C(CCCCCCC(=O)Nc1ccccc1)NO", "note": "[Vorinostat, suberoylanilide hydroxamic acid]", "values": [
      {"measurement": "Inhibition of HDAC8 (potency range)", "setting": "HDAC8", "value": "micromolar range"}
    ]}
  ]
}
